Like-named read-outs stand apart in the source and are kept apart here.
Legend:
[1] = system: epimastigotes of T. cruzi Arequipa strain; test: Screening against extracellular epimastigotes (resazurin); type: cell-based, Trypanosoma cruzi; conditions: for Selectivity Index Epimast.: IC50 Vero cells/IC50 epimastigotes; for IC50: Trypanosoma cruzi
Protocol: Trypanocidal activity against epimastigotes of T. cruzi Arequipa strain (MHOM/Pe/2011/Arequipa, discrete typing unit V) was tested as previously described. In short, 5 × 10^5 epimastigotes·mL^−1 were treated by adding the tested compounds at a concentration range from 100 to 0.2 µM in 96-well microplates (200 µL·well^−1) for 48 h. Subsequently, resazurin sodium salt (Sigma-Aldrich) was added to be incubated for further 24 h. Finally, the absorbance was measured, and the trypanocidal activity was expressed as the IC50 (inhibitory concentration 50) using GraphPad Prism 6 software. Each compound concentration was tested in triplicate in three independent experiments.

[2] = system: Trypanosoma cruzi amastigotes in Vero cells; test: Infection rate and amastigotes per Vero cell over 10 days; type: cell-based; conditions: IC25 concentrations, measured at 2 days intervals for 10 days
Protocol: Before going ahead on in vivo trials, the in vitro infection rate and the average number of amastigotes per Vero cell were also measured at 2 days intervals for 10 days after treating the infected cultures with BZN and potential candidates (8, 10, and 15) (Figure 1) at ICH25 concentrations resulting from amastigotes screening. […]. Fast-acting drugs are urgently needed, and this feature is an additional advantage since they can eliminate the parasite in a few doses.
(§1) Trypanocidal activity against amastigotes was determined according to the literature reported previously. […]. […] Each compound concentration was tested in triplicate in four separate determinations.
Figure 1 (A) Percentage of infected Vero cells and (B) number of amastigotes of Trypanosoma cruzi per Vero cell exposed to benznidazole (BZN), 8, 10 and 15. Values constitute means of three separate determinations ± standard deviation. * Significant differences between untreated and treated parasites for α = 0.05. dpi, days post-infection.

[3] = system: Trypanosoma cruzi bloodstream trypomastigotes (BTs); test: Screening against bloodstream trypomastigotes (resazurin); type: cell-based; conditions: for Selectivity Index Trypomast.: IC50 Vero cells/IC50 trypomastigotes; for IC50: Trypanosoma cruzi, Table 1, bloodstream trypomastigotes, 24 h treatment + 4 h resazurin, read-out: Activity IC50 Trypomast.
Protocol: 2 × 10^6 Bloodstream trypomastigotes (BTs), obtained by cardiac puncture from infected BALB/c mice as previously described, were treated by adding the tested compounds at a concentration range from 50 to 0.1 µM in 96-well microplates (200 µL·well^−1) at 37 °C. After 24 h of treatment, resazurin sodium salt (Sigma-Aldrich) was added to be incubated for further 4 h. Finally, trypanocidal activity was determined following the same procedure as described to assess the trypanocidal activity in the epimastigotes. Each compound concentration was tested in triplicate in three independent experiments.

Mammalian Vero cells = test: Cytotoxicity test on Vero cells (resazurin); type: cell-based; conditions: Chlorocebus sabaeus, 72 h; Table 1; Vero cells, 48 h + 24 h resazurin; read-out: Toxicity IC50 Vero Cell
Protocol: Mammalian Vero cells (EACC No. 84113001), cultured as previously reported, were used to determine the cytotoxicity of the tested compounds [56]. In short, 1.25 × 10^4 Vero cells·mL^−1 were treated by adding the compounds at a concentration range from 400 to 1 µM in 96-well microplates (200 µL·well^−1) at 37 °C for 48 h. Subsequently, resazurin sodium salt (Sigma-Aldrich) was added to be incubated for further 24 h. Finally, cell viability was determined following the same procedure as described to assess the trypanocidal activity in the epimastigotes. Each compound concentration was tested in triplicate in three independent experiments.

[4] = system: epimastigotes of T. cruzi Arequipa; test: 1H NMR analysis of excreted metabolites; type: cell-based, Trypanosoma cruzi; conditions: IC25 concentrations, 72 h
Protocol: 5 × 10^5 epimastigotes·mL^−1 of T. cruzi Arequipa were treated by adding the tested compounds at IC25 concentrations in 25 cm^2 cell culture flasks at 28 °C for 72 h. Untreated controls were also included. Cultures were then centrifuged and filtered, and the metabolites of the supernatants were analyzed using a ^1H NMR spectrometer (VARIAN DIRECT DRIVE 500 MHz […]) with AutoX probe, D2O as solvent and 2,2-dimethyl-2-silapentane-5-sulphonate as the reference signal. Chemical shifts were expressed in parts per million (ppm), and analyses were conducted as previously reported.

Trypanosoma cruzi [5] = test: Anti-T. cruzi IgG (ELISA) and splenomegaly in treated BALB/c mice; type: in vivo; conditions: treated BALB/c mice versus untreated; excluding IgG levels of chronic CD
Protocol: Otherwise, the immune status of the mice was evaluated—through the titer of total anti-T. cruzi IgG and the splenomegaly (Figure S1)—since it is a characteristic linked to the parasite load and the effectiveness ascribed to the potential candidates. […].
(§2) All in vivo assays for the evaluation of compounds in the acute and chronic CD (Scheme 1)—monitoring of parasitemia, immunosuppression, PCR [59, 60], ELISA [56], and clinical analysis [56]—were performed as previously described. PCR was based on the Spliced Leader (SL) intergenic region sequence of T. cruzi (for detailed description, see literature reported previously).
Figure S1. A) Anti-Trypanosoma cruzi immunoglobulin G levels, expressed in absorbance at 492 nm, at different days post-infection (dpi) for each group of mice treated during the acute and chronic phases of Chagas disease: control (untreated), benznidazole (BZN), 8, 10 and 15. Blank and uninfected mice are also […]
included. […] Values are the means of three mice ± standard deviation. (IS) immunosuppression. * Significant differences between untreated and treated mice for α =
0.05. B) Weight percentage of spleens in the chronic Chagas disease for each group of mice treated during the acute and chronic phases of the disease: control (untreated), benznidazole (BZN), 8, 10 and 15. Values are the means of three mice ± standard deviation. In brackets: reduction of splenomegaly in comparison to […]
(1 picture or pasted object on this page, not shown here)

Trypanosoma cruzi Fe-SOD = test: SOD enzymatic inhibition, Fe-SOD; type: biochemical; conditions: at 100 µM
Protocol: (§3) Excreted Fe-SOD protein—obtained and quantified as previously described [64]—and commercial Cu/Zn-SOD from human erythrocytes (Sigma-Aldrich) were exposed to the tested compounds at a concentration range from 100 to 0.1 µM to determine in vitro activities using the method previously described.

[6] = target: T1, human erythrocytes CuZn-SOD (Homo sapiens, UniProt P00441); test: SOD enzymatic inhibition, CuZn-SOD; type: biochemical; conditions: 100 to 0.1 µM, read-out: CuZn-SOD IC50 (in brackets)
T1 construct: commercial Cu/Zn-SOD from human erythrocytes (Sigma-Aldrich); purchased Sigma-Aldrich; host or cells: human erythrocytes
Protocol: as §3

Trypanosoma cruzi [7] = test: Parasitemia monitoring in infected BALB/c mice, acute Chagas disease; type: in vivo; conditions: oral 20 mg/kg per day for 5 days from 9th dpi, versus untreated
Protocol: (§4) Infection was carried out by intraperitoneal inoculation of 5 × 10^5 BTs of T. cruzi per mouse in 0.2 mL PBS [56]. The mice were treated by oral route (~200 µL) once daily for 5 consecutive days. The treatment for mice treated in the acute and chronic phases began when the infection was confirmed (9th day post-infection (dpi)) and was established that the animals had entered the chronic phase (100th dpi), respectively.
(§5) The mice were divided into six groups (n = 3 per group): 0, negative control group (uninfected and untreated mice); I, positive control group (infected and untreated mice); II, BZN group (mice infected and treated with BZN); III, 8 group (mice infected and treated with 8); IV, 10 group (mice infected and treated with 10); V, 15 group (mice infected and treated with 15). The tested compounds and BZN were prepared at 2 mg·mL^−1 in an aqueous suspension vehicle containing 5% (v/v) DMSO and 0.5% (w/v) hydroxypropyl methylcellulose, as previously reported. Therefore, doses of 20 mg·kg^−1 per day were administered for 5 consecutive days, and vehicle only was administered in the negative and positive control groups.
as §2

Trypanosoma cruzi [8] = test: Parasitemia reactivation after immunosuppression in BALB/c mice; type: in vivo; conditions: acute and chronic CD, 20 mg/kg per day for 5 days
Protocol: Secondly, the experimental cure was determined using a double checking widely used in in vivo trypanocidal trials. This double checking—based on immunosuppression and PCR (Figure 2B,C, respectively)—was performed to evaluate the treatment effectiveness and the disease extent in both acute and chronic CD at the end of the in vivo timeline. The mice whose parasitemia and PCR remain negative after immunosuppression are considered cured.
Immunosuppression enhances the reactivation of any residual infection, which is proportional to the parasite survival rate.
as §4, §5, §2

[9] = system: Trypanosoma cruzi intracellular amastigotes; test: Screening against intracellular amastigotes in Vero cells (Giemsa counting); type: cell-based; conditions: for Selectivity Index Amast.: IC50 Vero cells/IC50 amastigotes; for IC50: Trypanosoma cruzi, Table 1, intracellular amastigotes in Vero cells, 72 h, read-out: Activity IC50 Amast.
Protocol: as §1

[10] = Table 1, T. cruzi epimastigotes, 48 h treatment + 24 h resazurin, read-out: Activity IC50 Epimast.
[11] = Table S1, cultured epimastigote form of T. cruzi, read-out: Activity IC50
[12] = 72 h, Table 1, T. cruzi epimastigotes, 48 h treatment + 24 h resazurin, read-out: Activity IC50 Epimast.

T1 sequence (P00441 whole entry): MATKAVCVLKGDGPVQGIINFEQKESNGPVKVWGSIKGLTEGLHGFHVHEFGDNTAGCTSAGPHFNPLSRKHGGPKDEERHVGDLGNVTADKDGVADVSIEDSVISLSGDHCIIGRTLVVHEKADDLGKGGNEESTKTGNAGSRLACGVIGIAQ

Structure (SMILES)	Selectivity Index Epimast. [1]	IC50 [1, 10] [µM]	IC50 [1, 11] [µM]	infection rate and average number of amastigotes per Vero cell [2]	Selectivity Index Trypomast. [3]	IC50 [3] [µM]	CC50 (Mammalian Vero cells) [µM]	variation of excreted metabolites versus untreated parasites [4] [%]	total anti-T. cruzi IgG levels and splenomegaly (Trypanosoma cruzi [5])	Fe-SOD inhibition (Trypanosoma cruzi Fe-SOD) [%]	IC50 [6] [µM]	parasitemia levels (counting BTs) during the acute CD (Trypanosoma cruzi [7])	reactivation of infection after immunosuppression (in words) (Trypanosoma cruzi [8])	Selectivity Index Amast. [9]	IC50 [9] [µM]	IC50 [1, 12] [µM]	IC50 ([3]; 28 h) [µM]
CSc1ccc(C[Se][Se]Cc2ccc(SC)cc2)cc1 [compound 10]	75	1.8 ± 0.2	≤ 10	decrease in both infection rate and number of amastigotes per cell in a time-dependent manner	79	1.7 ± 0.3	135 ± 6.3	< 10	Slight or non-significant reductions	100	> 100	slight activity	light activity	112	1.2 ± 0.2	–	–
N#Cc1ccccc1C[Se][Se]Cc1ccccc1C#N [compound 20]	13	–	≤ 10	–	18	–	16.4 ± 0.5	–	–	–	–	–	–	16	1 ± 0.1	1.3 ± 0.2	0.9
Cc1ccc(C[Se]C#N)cc1 [compound 11]	20	3 ± 0.4	≤ 10	–	14	4.5 ± 0.6	61.3 ± 3.7	–	–	–	–	–	–	20	3.1 ± 0.1	–	–
O=S(=O)(Nc1ccc([Se][Se]c2ccc(NS(=O)(=O)c3ccc(-c4ccccc4)cc3)cc2)cc1)c1ccc(-c2ccccc2)cc1 [compound 46]	18	–	≤ 10	–	24	–	48.6 ± 3.5	–	–	–	–	–	–	21	2.3 ± 0.1	2.7 ± 0.8	2 ± 0.3
Cn1ccnc1S(=O)(=O)Nc1ccc([Se][Se]c2ccc(NS(=O)(=O)c3nccn3C)cc2)cc1 [compound 47]	12	–	≤ 10	–	12	–	44.7 ± 3	–	–	–	–	–	–	15	3 ± 0.4	3.6 ± 0.3	3.8 ± 0.4
Cc1ccc(S(=O)(=O)Nc2ccc([Se][Se]c3ccc(NS(=O)(=O)c4ccc(C)cc4)cc3)cc2)cc1 [compound 43]	13	5.1 ± 0.6	≤ 10	–	18	3.7 ± 0.2	66.9 ± 6.2	–	–	–	–	–	–	16	4.2 ± 0.7	–	–
N#C[Se]Cc1cccc(C#N)c1 [compound 21]	22	1 ± 0.2	≤ 10	–	24	0.9 ± 0.1	21.7 ± 1.8	–	–	–	–	–	–	27	0.8 ± 0.1	–	–

Source: paper PMC8147293, “Library of Selenocyanate and Diselenide Derivatives as In Vivo Antichagasic Compounds Targeting Trypanosoma cruzi Mitochondrion” (Pharmaceuticals, 2021)
